Assay results taken from patent US20240287106A1, “Method for Producing Fluorescent Probe Library Using Solid-Phase Extraction and Method of Measuring Enzyme Activity Using Same” (The University of Tokyo, priority 2021, published 2024).
Blank lines part the entries; values can stand above or below the molecule they belong to.

Tests used:
Assay type in all cases: biochemical
CD13 = target: T1, CD13 (Homo sapiens, UniProt P15144); experiment: Measurement of human plasma sample using CD13 probe in microdevice; conditions: 50 μM probe, 1000 fold dilution plasma; for Fluorescence intensity of human plasma samples, patient with pancreatic cancer compared with healthy subject (CD13 probe): microdevice; for AUC of ROC curve for the number of wells in which CD13 is considered to be enclosed: plasma of 30 patients with pancreatic cancer vs 30 healthy subjects, 37° C. 4 hours, wells >= Average+3SD of background fluorescence
T1 construct: human plasma samples collected from 30 patients with pancreatic cancer and 30 healthy subjects; from tissue; host or cells: human plasma (pancreatic cancer patients and healthy subjects)
Description: 1. Arg-PMAC as a CD13 probe was diluted with an assay buffer to 100 μM. The composition of the buffer is 100 mM HEPES-NaOH (pH 7.4), 1 mM MgCl2, 1 mM DTT, 3 mM TritonX-100.
(§1) 2. Next, human plasma samples collected from 30 patients with pancreatic cancer and 30 healthy subjects were diluted 500 times with the above assay buffer, and mixed in an equal amount with the diluted solution of the CD13 probe. At this time, the final concentrations are 50 μM for the CD13 probe and 1000 fold dilution for the human plasma sample.
(§2) 3. The mixed solution was then added to a microdevice, followed by the addition of sealing oil to enclose the solution in each well.
4. The microdevice in which the solution was enclosed was incubated at 37° C. for 4 hours, and then the fluorescence intensity of each well was measured with a fluorescence microscope.

DPP4 = target: T2, DPP4 (Homo sapiens, UniProt P27487); experiment: Measurement of human plasma sample using DPP4 probe in microdevice; conditions: 50 μM probe, 1000 fold dilution plasma
T2 construct: human plasma samples collected from 30 patients with pancreatic cancer and 30 healthy subjects; from tissue; host or cells: human plasma (pancreatic cancer patients and healthy subjects)
Description: 1. Glu-Pro-PMAC as a DPP4 probe was diluted with an assay buffer to 100 μM. The composition of the buffer is 100 mM HEPES-NaOH (pH 7.4), 1 mM MgCl2, 1 mM DTT, 3 mM TritonX-100.
as §1, with “DPP4” for “CD13”
as §2
4. The microdevice in which the solution was enclosed was incubated at 25° C. for 2 hours, and then the fluorescence intensity of each well was measured with a fluorescence microscope.

ENPP3 [1] = target: T3, ENPP3 (Homo sapiens, UniProt O14638); experiment: Activity measurement using a purified enzyme of ENPP3 on a plate reader; conditions: Tris-HCl buffer pH 9.3, 1 mM MgCl2, 0.5% CHAPS, 10 μM probe, ENPP3 9.9 μg/mL
T3 sequence (O14638 1-875): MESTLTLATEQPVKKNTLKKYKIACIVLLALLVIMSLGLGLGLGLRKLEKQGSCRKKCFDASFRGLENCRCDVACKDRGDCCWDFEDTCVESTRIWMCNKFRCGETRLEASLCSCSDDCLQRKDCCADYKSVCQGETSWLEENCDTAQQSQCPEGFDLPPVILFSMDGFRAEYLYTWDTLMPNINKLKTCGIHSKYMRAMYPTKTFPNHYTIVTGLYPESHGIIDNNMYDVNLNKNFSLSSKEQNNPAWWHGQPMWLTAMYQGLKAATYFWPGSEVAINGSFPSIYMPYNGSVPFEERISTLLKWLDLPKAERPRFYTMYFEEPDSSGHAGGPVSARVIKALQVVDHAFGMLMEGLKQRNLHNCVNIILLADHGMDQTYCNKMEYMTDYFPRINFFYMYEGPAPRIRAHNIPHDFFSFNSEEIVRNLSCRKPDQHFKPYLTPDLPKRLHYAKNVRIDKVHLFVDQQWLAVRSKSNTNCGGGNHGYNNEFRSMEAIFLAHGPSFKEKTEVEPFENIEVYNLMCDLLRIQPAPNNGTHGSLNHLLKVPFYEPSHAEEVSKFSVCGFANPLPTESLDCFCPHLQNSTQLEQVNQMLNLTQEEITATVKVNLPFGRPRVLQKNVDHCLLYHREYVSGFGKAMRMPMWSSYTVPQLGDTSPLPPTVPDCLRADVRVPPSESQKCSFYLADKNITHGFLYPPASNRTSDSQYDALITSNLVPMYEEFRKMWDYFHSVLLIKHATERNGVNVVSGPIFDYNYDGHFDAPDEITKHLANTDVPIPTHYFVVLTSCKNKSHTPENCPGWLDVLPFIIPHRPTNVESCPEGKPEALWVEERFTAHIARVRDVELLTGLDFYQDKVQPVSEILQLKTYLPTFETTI
Description: The activity measurement of PMUM-dCMP obtained in Synthesis Example 7 was performed using a purified enzyme of ENPP3 on a plate reader.
The assay was performed with a Tris-HCl buffer (pH 9.3) containing 1 mM MgCl2, 0.5% w/w CHAPS, 10 μM PMUM-dCMP, and ENPP3 (recombinant, 9.9 μg/mL).

ENPP3 [2] = target: T3, ENPP3; experiment: Measurement of human plasma sample using ENPP probe in microdevice; parameters: human plasma samples collected from six patients with pancreatic cancer and six healthy subjects; from tissue; host or cells: human plasma (pancreatic cancer patients and healthy subjects)
Description: 1. PMUM-dCMP as an ENPP probe was diluted with an assay buffer to 200 μM. The composition of the assay buffer is 100 mM Tris-HCl (pH 9.3), 1 mM MgCl2, 0.5% (w/v) CHAPS.
as §1, with “six” for “30”, “250” for “500”, “ENPP” for “CD13”, “100” for “50”, “500” for “1000”
as §2
4. The microdevice in which the solution was enclosed was incubated at 25° C. for 40 minutes, and then the fluorescence intensity of each well was measured with a fluorescence microscope.
Specifically, in this example, an ROC curve for determination based on the enzyme activity of ENPP determined based on the number of wells with 2500 AU or more is created, and when a threshold is subtracted at the time when the number of wells with 2500 AU or more is 23, the sensitivity is 83% and the specificity is 100% (FIG. 16). It is possible to determine pancreatic cancer by such an ROC curve.

[3] = threshold: number of wells with 2500 AU or more is 23

T1 sequence (P15144 whole entry): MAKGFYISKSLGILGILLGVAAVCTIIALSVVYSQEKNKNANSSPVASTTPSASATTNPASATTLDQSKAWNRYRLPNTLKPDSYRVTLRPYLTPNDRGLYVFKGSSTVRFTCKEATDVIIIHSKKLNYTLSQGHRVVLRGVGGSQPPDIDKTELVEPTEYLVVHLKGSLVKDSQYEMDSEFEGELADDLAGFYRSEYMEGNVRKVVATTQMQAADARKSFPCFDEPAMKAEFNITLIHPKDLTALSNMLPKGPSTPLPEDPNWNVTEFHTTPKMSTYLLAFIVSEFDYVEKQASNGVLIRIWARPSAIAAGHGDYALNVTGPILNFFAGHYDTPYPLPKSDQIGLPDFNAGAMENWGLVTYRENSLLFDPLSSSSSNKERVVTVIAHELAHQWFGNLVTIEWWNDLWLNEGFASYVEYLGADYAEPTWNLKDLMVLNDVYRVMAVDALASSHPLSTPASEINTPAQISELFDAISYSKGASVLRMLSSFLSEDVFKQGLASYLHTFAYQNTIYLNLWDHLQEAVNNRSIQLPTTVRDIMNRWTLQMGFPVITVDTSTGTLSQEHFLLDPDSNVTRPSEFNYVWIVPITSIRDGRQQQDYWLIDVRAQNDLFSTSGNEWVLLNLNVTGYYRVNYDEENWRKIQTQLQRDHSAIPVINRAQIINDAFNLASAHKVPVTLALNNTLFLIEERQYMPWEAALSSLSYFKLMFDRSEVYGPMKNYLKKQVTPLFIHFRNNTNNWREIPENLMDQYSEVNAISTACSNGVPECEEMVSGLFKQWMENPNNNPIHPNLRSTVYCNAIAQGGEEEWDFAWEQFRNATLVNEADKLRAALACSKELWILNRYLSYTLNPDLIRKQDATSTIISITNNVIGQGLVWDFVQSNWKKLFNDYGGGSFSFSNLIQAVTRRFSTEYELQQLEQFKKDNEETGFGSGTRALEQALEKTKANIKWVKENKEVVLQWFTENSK
T2 sequence (P27487 39-766 limits assumed): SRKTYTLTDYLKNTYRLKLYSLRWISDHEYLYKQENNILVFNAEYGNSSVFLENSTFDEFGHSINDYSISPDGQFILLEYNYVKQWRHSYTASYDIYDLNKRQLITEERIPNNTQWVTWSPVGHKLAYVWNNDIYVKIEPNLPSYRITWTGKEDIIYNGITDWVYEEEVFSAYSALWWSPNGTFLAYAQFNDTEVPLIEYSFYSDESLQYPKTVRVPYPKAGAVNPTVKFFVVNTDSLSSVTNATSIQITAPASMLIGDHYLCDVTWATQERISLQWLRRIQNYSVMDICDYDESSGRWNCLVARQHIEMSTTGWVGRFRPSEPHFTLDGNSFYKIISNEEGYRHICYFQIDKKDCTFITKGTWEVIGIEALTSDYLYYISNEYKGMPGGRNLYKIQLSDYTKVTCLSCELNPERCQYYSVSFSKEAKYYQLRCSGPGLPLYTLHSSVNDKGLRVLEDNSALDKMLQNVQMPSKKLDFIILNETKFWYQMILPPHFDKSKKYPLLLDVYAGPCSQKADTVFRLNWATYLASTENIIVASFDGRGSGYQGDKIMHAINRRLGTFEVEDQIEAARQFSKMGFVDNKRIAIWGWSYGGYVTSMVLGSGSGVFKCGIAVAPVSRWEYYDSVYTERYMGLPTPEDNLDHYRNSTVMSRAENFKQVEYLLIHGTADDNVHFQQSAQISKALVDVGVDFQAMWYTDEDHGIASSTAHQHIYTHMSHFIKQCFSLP

Fluorescence intensity of human plasma samples, patient with pancreatic cancer compared with healthy subject (CD13 probe) (CD13): a significant difference was observed | AUC of ROC curve for the number of wells in which CD13 is considered to be enclosed (CD13): 0.619
Compound: CSCC[C@H](N)C(=O)Nc1ccc2c(CP(=O)(O)O)cc(=O)oc2c1 [Met-PMAC]

Fluorescence intensity of human plasma samples, patient with pancreatic cancer compared with healthy subject (CD13 probe) (CD13): a significant difference was observed | AUC of ROC curve for the number of wells in which CD13 is considered to be enclosed (CD13): 0.554
Compound: N=C(N)NCCC[C@H](N)C(=O)Nc1ccc2c(CP(=O)(O)O)cc(=O)oc2c1 [Arg-PMAC]

Fluorescence intensity of human plasma samples, patient with pancreatic cancer compared with healthy subject (DPP4 probe) (DPP4; microdevice): a significant difference was observed | AUC of ROC curve for the ratio of the number of wells belonging to the two peaks (DPP4 considered enclosed) (DPP4; plasma of 30 patients with pancreatic cancer vs 30 healthy subjects, 25° C. 2 hours): 0.724
Compound: N[C@@H](CCC(=O)O)C(=O)N1CCC[C@@H]1C(=O)Nc1ccc2c(CP(=O)(O)O)cc(=O)oc2c1 [Glu-Pro-PMAC]

Compound: NC1C=CN(C2CC(O)C(COP(=O)(O)Oc3ccc4c(CP(=O)(O)O)cc(=O)oc4c3)O2)C(=O)N1 (centres unmarked) [PMUM-dCMP]
Fluorescence intensity (FI) on adding ENPP3 compared with adding no ENPP3 (ENPP3 [1]): remarkable increase in fluorescence intensity | Fluorescence intensity of human plasma samples, patient with pancreatic cancer compared with healthy subject (ENPP probe) (ENPP3 [2]; microdevice, 100 μM probe, 500 fold dilution plasma): a significant difference was observed | Number of wells with fluorescence intensity equal to or higher than 2500 AU, patients with pancreatic cancer compared with healthy subjects (ENPP3 [2]; plasma of six patients and six healthy subjects, 100 μM probe, 500 fold dilution plasma, 25° C. 40 minutes): significant increase in the number of wells | Sensitivity of ROC determination of pancreatic cancer (ENPP3 [2]; [3]): 83% | Specificity of ROC determination of pancreatic cancer (ENPP3 [2]; [3]): 100%
